Measurements from patent US8350048B2, “Amide compounds as boosters of antivirals” (Janssen R&D Ireland, priority 2007, dated 2013).
Where two headings read alike, the source gives them in different places.

Assays:
[1] = tested on: MT4 CMV-EGFP cells; assay: Toxicity, mock-infected MT4 CMV-EGFP cells; type: cell-based, human
Description: (§1) Assay 1 &2: Antiviral Activity/Toxicity
(§2) Analogously, MT4 cells are engineered with GFP and the constitutional cytomegalovirus (CMV) promotor. […] Cytotoxic investigational compounds reduce GFP levels of mock-infected MT4 CMV-EGFP cells.
(§3) The ratio of CC50 to EC50 is defined as the selectivity index (SI) and is an indication of the selectivity of the anti-HIV activity of the inhibitor. The ultimate monitoring of HIV-1 infection and cytotoxicity is done using a scanning microscope. Image analysis allows very sensitive detection of viral infection. Measurements are done before cell necrosis, which usually takes place about five days after infection, in particular measurements are performed three days after infection.
(§4) A pEC50 value corresponds to −log10(EC50). A pCC50 value corresponds to −log10(CC50).

[2] = molecular target: T1, CYP2C19 (Homo sapiens, UniProt P33261); assay: CYP450 inhibition CDNA-CYP2C19-CEC; conditions: 10 μM test compound, substrate CEC 25 μM, 30 min
Experimental: (§6) Inhibition of the metabolism of test compounds by different CYP P450 isoenzymes was determined using E. coli expressed proteins (3A4, 2C9, 2D6, 1A2, and 2C19) that convert their specific substrates into a fluorescent molecule (Table 6). This fluorescent molecule was measured using a fluorescent plate reader (Victor2 (Wallac) or Fluoroskan (Labsystems)). […] CYP P450 enzymes were prepared in house or commercially bought and stored at −80° C.
(§7) The assay was performed in black 96 well Costar plates. Test compounds were added to a CYP P450 enzyme solution in the presence of an NADPH generating system. After 5 min of preincubation at 37° C., the freshly prepared, phosphate buffered (pH 7.4) substrate solution was added. Known CYP P450 inhibitors were used as positive controls, negative controls were run without CYP P450 enzyme. […] Reaction mixtures were incubated at 37° C. for 30 min (CYP3A4-BFC), 30 min (CYP3A4-BQ), 10 min (CYP3A4-DBF), 15 min (CYP1A2-CEC), 30 min (CYP2C9-MFC, CYP2C19-CEC), or 45 min (CYP2D6-AMMC), respectively. Then, the reaction was stopped by the addition of 200 μl acetonitrile, and the fluorescent signal was detected.
(§8) Calculation of CYP P450 isoenzyme inhibition (% inh.):
(§9) % activity=(100/(average positive control−average negative control))×(average sample−average negative control)

[3] = tested on: wild-type HIV-1IIIB strain; assay: Antiviral activity, MT4 LTR-EGFP cellular assay; type: cell-based; design: key to Antiviral activity IIIB (pEC50): pEC50 = -log10(EC50); conditions: for EC50: read-out: Antiviral activity IIIB (pEC50) (converted)
Experimental: as §1
The compounds of the present invention were tested for antiviral activity in a cellular assay, which was performed according to the following procedure.
The human T-cell line MT4 is engineered with Green Fluorescent Protein (GFP) and an HIV-specific promoter, HIV-1 long terminal repeat (LTR). This cell line is designated MT4 LTR-EGFP, and can be used for the in vitro evaluation of anti-HIV activity of investigational compounds. In HIV-1 infected cells, the Tat protein is produced which upregulates the LTR promotor and finally leads to stimulation of the GFP reporter production, allowing measuring ongoing HIV-infection fluorometrically.
as §3, §4

[4] = Metabolic stability of test compounds (HLM15'); type: in vitro ADME, human; conditions: human liver microsomes 1 mg/ml, 5 μM test compound, 15 min; for recovery at 15 min, 5 μM: pH 7.4, read-out: Metabolic stability (HLM, % recovery after 15')
Description: Human liver tissue is rinsed in ice-cold 0.1 M Tris-HCl (pH 7.4) buffer to wash excess blood. Tissue is then blotted dry, weighed and chopped coarsely using surgical scissors. The tissue pieces are homogenized in 3 volumes of ice-cold 0.1 M phosphate buffer (pH 7.4) using either a Potter-S (Braun, Italy) equipped with a Teflon pestle or a Sorvall Omni-Mix homogenizer, for 7×10 sec. In both cases, the vessel is kept in/on ice during the homogenization process. Tissue homogenates are centrifuged at 9000×g for 20 min at 4° C. using a Sorvall centrifuge or Beckman Ultracentrifuge. The resulting supernatant can be stored at −80° C. and is designated ‘S9’. The S9 fraction is centrifuged at 100,000×g for 60 min at 4° C. using a Beckman ultracentrifuge. The resulting supernatant is carefully aspirated, aliquoted and designated ‘cytosol’. The pellet is re-suspended in 0.1 M phosphate buffer (pH 7.4) in a final volume of 1 ml per 0.5 g original tissue weight and designated ‘microsomes’. All sub-cellular fractions are aliquoted, immediately frozen in liquid nitrogen and stored at −80° C. until use.
Heat-inactivated (10 min at 95° C.) ‘S9’ or microsomes were used for blank experiments. […] The reaction was incubated for 0 or 15 min. Next, the reaction was stopped by addition of 2 volumes of DMSO (or acetonitrile). Samples were centrifuged (10 min, 900×g) and analyzed by LC-MS.

[5] = molecular target: T2, CYP3A4 (Homo sapiens, UniProt P08684); assay: CYP450 inhibition CDNA-CYP3A4-BFC; conditions: 10 μM test compound, substrate BFC 150 μM, 30 min
Description: (§5) Assay 4: CYP450 Inhibition

[6] = molecular target: CYP2C9 (Homo sapiens, UniProt P11712); assay: in vitro
Description: as §5

[7] = molecular target: T2, CYP3A4; assay: CYP450 inhibition CDNA-CYP3A4-BQ; conditions: 10 μM test compound, substrate BQ 60 μM, 30 min
Description: as §5

[8] = Toxicity, mock-infected MT4 CMV-EGFP cells; type: cell-based, human; conditions: human, mock-infected MT4 CMV-EGFP cells; read-out: Toxicity MT4 (pCC50) (converted)
Description: as §1, §2, §3, §4

[9] = molecular target: T1, CYP2C19; assay: in vitro; conditions: E. coli expressed CYP2C19, pH 7.4, probe CEC 25 μM
Experimental: as §6, §7, §8, §9

[10] = molecular target: CYP2D6 (Homo sapiens, UniProt P10635); assay: in vitro; conditions: pH 7.4
Experimental: as §6, §7, §8, §9

[11] = molecular target: T3, CYP1A2 (Homo sapiens, UniProt P05177); assay: in vitro; conditions: E. coli expressed CYP1A2, pH 7.4, probe CEC 5 μM
T3 sequence (P05177 1-516): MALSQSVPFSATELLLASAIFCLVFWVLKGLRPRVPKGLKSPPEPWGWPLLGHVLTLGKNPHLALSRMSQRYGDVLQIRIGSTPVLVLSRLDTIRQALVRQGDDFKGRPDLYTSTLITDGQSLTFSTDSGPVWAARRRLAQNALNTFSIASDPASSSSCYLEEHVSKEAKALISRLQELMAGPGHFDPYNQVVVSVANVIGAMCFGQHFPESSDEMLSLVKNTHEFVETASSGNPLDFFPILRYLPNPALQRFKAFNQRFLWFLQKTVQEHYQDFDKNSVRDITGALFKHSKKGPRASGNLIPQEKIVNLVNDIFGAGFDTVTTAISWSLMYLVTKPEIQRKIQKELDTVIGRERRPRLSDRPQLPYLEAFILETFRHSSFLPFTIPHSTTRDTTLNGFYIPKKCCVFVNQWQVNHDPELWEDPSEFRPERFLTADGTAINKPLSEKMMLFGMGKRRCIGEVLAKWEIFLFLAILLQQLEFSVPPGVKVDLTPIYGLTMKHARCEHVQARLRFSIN
Experimental: as §6, §7, §8, §9

[12] = wild-type HIV-1 IIIB, MT4 LTR-EGFP cells, three days after infection
[13] = Human immunodeficiency virus 1, 72 h, wild-type HIV-1 IIIB, MT4 LTR-EGFP cells, three days after infection

Chain of CYP2C9 (P11712 whole entry): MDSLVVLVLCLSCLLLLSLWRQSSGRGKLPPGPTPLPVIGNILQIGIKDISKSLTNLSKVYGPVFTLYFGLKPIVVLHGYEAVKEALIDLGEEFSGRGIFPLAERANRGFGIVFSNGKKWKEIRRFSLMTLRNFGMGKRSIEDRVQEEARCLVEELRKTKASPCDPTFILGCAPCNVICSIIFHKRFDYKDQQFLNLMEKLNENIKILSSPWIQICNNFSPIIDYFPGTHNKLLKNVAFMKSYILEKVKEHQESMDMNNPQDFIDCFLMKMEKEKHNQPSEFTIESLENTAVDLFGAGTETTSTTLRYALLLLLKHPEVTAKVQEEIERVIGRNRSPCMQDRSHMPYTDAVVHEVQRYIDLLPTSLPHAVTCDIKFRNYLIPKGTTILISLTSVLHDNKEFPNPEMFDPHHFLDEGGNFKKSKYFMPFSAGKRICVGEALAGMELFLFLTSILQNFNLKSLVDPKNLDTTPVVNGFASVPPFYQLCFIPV
T1 sequence (P33261 whole entry): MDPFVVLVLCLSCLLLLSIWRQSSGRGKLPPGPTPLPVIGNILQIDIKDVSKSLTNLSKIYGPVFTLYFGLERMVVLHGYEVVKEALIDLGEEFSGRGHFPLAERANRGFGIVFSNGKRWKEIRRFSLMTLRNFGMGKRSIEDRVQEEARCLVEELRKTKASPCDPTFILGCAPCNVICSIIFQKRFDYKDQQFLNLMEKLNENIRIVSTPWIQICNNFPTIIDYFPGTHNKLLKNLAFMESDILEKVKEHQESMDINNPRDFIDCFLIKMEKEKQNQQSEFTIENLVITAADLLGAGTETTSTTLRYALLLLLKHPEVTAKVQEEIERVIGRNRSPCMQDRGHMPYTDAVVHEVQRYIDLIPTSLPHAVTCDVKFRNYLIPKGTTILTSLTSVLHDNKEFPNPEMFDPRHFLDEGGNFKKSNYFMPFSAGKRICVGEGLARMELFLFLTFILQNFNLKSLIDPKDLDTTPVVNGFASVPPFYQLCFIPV
T2 sequence (P08684 whole entry): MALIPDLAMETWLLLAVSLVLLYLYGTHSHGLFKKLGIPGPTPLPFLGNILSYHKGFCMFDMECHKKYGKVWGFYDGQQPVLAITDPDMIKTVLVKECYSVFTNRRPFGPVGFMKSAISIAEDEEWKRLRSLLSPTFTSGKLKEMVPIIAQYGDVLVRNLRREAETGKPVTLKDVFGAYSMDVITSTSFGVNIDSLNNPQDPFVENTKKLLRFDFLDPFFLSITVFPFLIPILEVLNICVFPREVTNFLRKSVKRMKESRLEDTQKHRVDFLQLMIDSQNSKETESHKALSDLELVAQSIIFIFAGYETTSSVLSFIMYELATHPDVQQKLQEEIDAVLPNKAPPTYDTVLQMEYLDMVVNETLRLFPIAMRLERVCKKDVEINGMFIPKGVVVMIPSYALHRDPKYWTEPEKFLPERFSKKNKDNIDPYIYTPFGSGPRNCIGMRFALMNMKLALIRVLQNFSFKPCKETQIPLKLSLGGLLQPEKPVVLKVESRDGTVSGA
Chain of CYP2D6 (P10635 whole entry): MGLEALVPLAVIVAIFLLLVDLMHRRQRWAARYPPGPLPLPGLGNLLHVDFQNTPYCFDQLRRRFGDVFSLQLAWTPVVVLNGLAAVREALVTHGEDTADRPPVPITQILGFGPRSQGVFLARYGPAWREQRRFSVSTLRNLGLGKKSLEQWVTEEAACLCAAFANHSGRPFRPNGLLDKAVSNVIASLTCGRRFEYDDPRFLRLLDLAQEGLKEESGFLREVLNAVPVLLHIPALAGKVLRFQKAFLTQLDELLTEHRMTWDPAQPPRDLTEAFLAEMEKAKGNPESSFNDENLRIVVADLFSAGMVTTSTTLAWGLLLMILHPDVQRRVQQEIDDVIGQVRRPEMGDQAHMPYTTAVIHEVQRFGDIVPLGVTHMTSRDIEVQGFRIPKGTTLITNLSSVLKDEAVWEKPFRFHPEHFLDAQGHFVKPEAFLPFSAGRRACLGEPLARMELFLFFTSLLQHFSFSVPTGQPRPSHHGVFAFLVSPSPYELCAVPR

Compound: CC(C)CN(C[C@@H](O)[C@H](Cc1ccccc1)NC(=O)OCc1cncs1)C(=O)c1ccc2nc(N3CCCC3)oc2c1 [Compound C2]
- Toxicity MT4 (pCC50) [1]: <4.00
- Cyp450 inhibition: CDNA-CYP2C19-CEC (% inhibition) [2]: 92%
- Antiviral activity IIIB (pEC50) [3, 12]: <4.00
- Metabolic stability (HLM, % recovery after 15') [4]: 78%

Compound: CC(C)(O)CN(C[C@@H](O)[C@H](Cc1ccccc1)NC(=O)OCc1cncs1)C(=O)c1ccc2nc(N3CCCC3)oc2c1 [Compound C28]
- Cyp450 inhibition: CDNA-CYP3A4-BFC (% inhibition) [5]: 98%
- Cyp450 inhibition: CDNA-CYP2C9-MFC (% inhibition) [6]: 99%
- Toxicity MT4 (pCC50) [1]: <4.00
- Cyp450 inhibition: CDNA-CYP3A4-BQ (% inhibition) [7]: 79%
- Cyp450 inhibition: CDNA-CYP2C19-CEC (% inhibition) [2]: 83%
- Antiviral activity IIIB (pEC50) [3, 12]: <4.00
- Metabolic stability (HLM, % recovery after 15') [4]: 72%

Compound: O=C(N[C@@H](Cc1ccccc1)[C@H](O)CN(CC1CCCCC1)C(=O)c1ccc2nc(N3CCCC3)oc2c1)OCc1cncs1 [Compound C31, Thiazol-5-ylmethyl (2S,3R)-4-(N-(cyclohexylmethyl)-2-(pyrrolidin-1-yl)-benzo[d]oxazole-6-carboxamido)-3-hydroxy-1-phenylbutan-2-ylcarbamate]
- CC50 at 3 days [8]: 21.9 µM
- inhibition at 30 min, 10 μM [9]: 104%
- inhibition at 45 min, 10 μM [10]: 78%
- EC50 ([3]; Human immunodeficiency virus 1, IIIB, 72 h): 27.5 µM
- recovery at 15 min, 5 μM [4]: 59%

Compound: CN(C)CCN(C[C@@H](O)[C@H](Cc1ccccc1)NC(=O)OCc1cncs1)C(=O)c1ccc2nc(N3CCCC3)oc2c1 [Compound C17]
- Cyp450 inhibition: CDNA-CYP3A4-BFC (% inhibition) [5]: 95%
- Cyp450 inhibition: CDNA-CYP2C9-MFC (% inhibition) [6]: 34%
- Toxicity MT4 (pCC50) [1]: <4.00
- Cyp450 inhibition: CDNA-CYP3A4-BQ (% inhibition) [7]: 79%
- Cyp450 inhibition: CDNA-CYP2C19-CEC (% inhibition) [2]: 46%
- Antiviral activity IIIB (pEC50) [3, 12]: <4.00
- Metabolic stability (HLM, % recovery after 15') [4]: 55%

Compound: CC(C)(C)CN(C[C@@H](O)[C@H](Cc1ccccc1)NC(=O)OCc1cncs1)C(=O)c1ccc2nc(N3CCCC3)oc2c1 [Compound C37]
- Cyp450 inhibition: CDNA-CYP3A4-BFC (% inhibition) [5]: 97%
- Cyp450 inhibition: CDNA-CYP2C9-MFC (% inhibition) [6]: 96%
- Toxicity MT4 (pCC50) [1]: =4.31
- Cyp450 inhibition: CDNA-CYP3A4-BQ (% inhibition) [7]: 79%
- Cyp450 inhibition: CDNA-CYP2C19-CEC (% inhibition) [2]: 92%
- Antiviral activity IIIB (pEC50) [3, 12]: =4.35
- Metabolic stability (HLM, % recovery after 15') [4]: 71%

Compound: CN(C[C@@H](O)[C@H](Cc1ccccc1)NC(=O)OCc1cncs1)C(=O)c1ccc2nc(N3CCCC3)oc2c1 [Compound C21]
- Cyp450 inhibition: CDNA-CYP3A4-BFC (% inhibition) [5]: 96%
- Cyp450 inhibition: CDNA-CYP2C9-MFC (% inhibition) [6]: 100%
- Toxicity MT4 (pCC50) [1]: <4.00
- Cyp450 inhibition: CDNA-CYP3A4-BQ (% inhibition) [7]: 81%
- Cyp450 inhibition: CDNA-CYP2C19-CEC (% inhibition) [2]: 90%
- Antiviral activity IIIB (pEC50) [3, 12]: <4.00
- Metabolic stability (HLM, % recovery after 15') [4]: 71%

Compound: CCN(C)c1nc2ccc(C(=O)N(CC3CCCCC3)C[C@@H](O)[C@H](Cc3ccccc3)NC(=O)OCc3cncs3)cc2o1 [Compound C32, Thiazol-5-ylmethyl (2S,3R)-4-(N-(cyclohexylmethyl)-2-(ethyl(methyl)-amino)benzo[d]oxazole-6-carboxamido)-3-hydroxy-1-phenylbutan-2-yl-carbamate]
- inhibition at 30 min, 10 μM ([6]; human, pH 7.4): 98%
- inhibition at 15 min, 10 μM [11]: 27%
- CC50 at 3 days [8]: 21.4 µM
- inhibition at 30 min, 10 μM [9]: 100%
- inhibition at 45 min, 10 μM [10]: 87%
- EC50 [3, 13]: 20.9 µM
- recovery at 15 min, 5 μM [4]: 54%

Compound: O=C(N[C@@H](Cc1ccccc1)[C@H](O)CN(CCN1CCCC1)C(=O)c1ccc2nc(N3CCCC3)oc2c1)OCc1cncs1 [Compound C13]
- Cyp450 inhibition: CDNA-CYP3A4-BFC (% inhibition) [5]: 91%
- Cyp450 inhibition: CDNA-CYP2C9-MFC (% inhibition) [6]: 42%
- Toxicity MT4 (pCC50) [1]: <4.00
- Cyp450 inhibition: CDNA-CYP3A4-BQ (% inhibition) [7]: 76%
- Cyp450 inhibition: CDNA-CYP2C19-CEC (% inhibition) [2]: 46%
- Antiviral activity IIIB (pEC50) [3, 12]: =4.24
- Metabolic stability (HLM, % recovery after 15') [4]: 81%

Compound: O=C(N[C@@H](Cc1ccccc1)[C@H](O)CN(CCN1CCOCC1)C(=O)c1ccc2nc(N3CCCC3)oc2c1)OCc1cncs1 [Compound C20]
- Cyp450 inhibition: CDNA-CYP3A4-BFC (% inhibition) [5]: 96%
- Cyp450 inhibition: CDNA-CYP2C9-MFC (% inhibition) [6]: 72%
- Toxicity MT4 (pCC50) [1]: <4.00
- Cyp450 inhibition: CDNA-CYP3A4-BQ (% inhibition) [7]: 81%
- Cyp450 inhibition: CDNA-CYP2C19-CEC (% inhibition) [2]: 65%
- Antiviral activity IIIB (pEC50) [3, 12]: <4.00
- Metabolic stability (HLM, % recovery after 15') [4]: 65%

Compound: O=C(N[C@@H](Cc1ccccc1)[C@H](O)CN(CC1CCC(F)(F)CC1)C(=O)c1ccc2nc(N3CCCC3)oc2c1)OCc1cncs1 [Compound C47]
- Cyp450 inhibition: CDNA-CYP3A4-BFC (% inhibition) [5]: 95%
- Cyp450 inhibition: CDNA-CYP2C9-MFC (% inhibition) [6]: 98%
- Toxicity MT4 (pCC50) [1]: =4.38
- Cyp450 inhibition: CDNA-CYP3A4-BQ (% inhibition) [7]: 85%
- Cyp450 inhibition: CDNA-CYP2C19-CEC (% inhibition) [2]: 96%
- Antiviral activity IIIB (pEC50) [3, 12]: =4.53
- Metabolic stability (HLM, % recovery after 15') [4]: 78%

Compound: CC(C)CN(C[C@H](O)[C@H](Cc1ccccc1)NC(=O)OCc1cncs1)C(=O)c1ccc2nc(N3CCCC3)oc2c1 [Compound C51, Thiazol-5-ylmethyl (2S,3S)-3-hydroxy-4-(N-isobutyl-2-(pyrrolidin-1-yl)-benzo[d]oxazole-6-carboxamido)-1-phenylbutan-2-ylcarbamate]
- CC50 at 3 days [8]: 40.7 µM
- inhibition at 30 min, 10 μM [9]: 94%
- inhibition at 45 min, 10 μM [10]: 82%
- EC50 [3, 13]: 44.7 µM
- recovery at 15 min, 5 μM [4]: 66%
